Data reported in patent US20210070718A1, “NOVEL PHENYLSULFONYL OXAZOLE DERIVATIVE AND USE THEREOF” (priority 2018, published 2021).

Tests used:
Assay type in all cases: in vivo
[1] = tested on: APP/PS1 mouse; assay: Morris water maze (MWM) test; settings: 50 mg/kg intraperitoneally 3 times a week for 2 months, FIGS. 5A to 5C
From the text: (§1) A mouse experiment was approved by the Kyungpook National University Institutional Animal Care and Use Committee (IACUC). As an animal model of neurodegenerative disease (particularly, Alzheimer's disease), a transgenic mouse line overexpressing APPswe (hAPP695swe) and PS1 (presenilin-1M146V) based on a C57BL/6 mouse (Charles River, UK) was used. [hereinafter, APP/PS1 mouse (denoted by AD), GlaxoSmithKline Co., Ltd.]
(§2) To confirm a therapeutic effect of the autophagy enhancing compound obtained in <Example 1>, an experimental substance was administered to the animal model according to the experimental outline (schedule) illustrated in FIG. 1. Specifically, PBS or the autophagy enhancing compound was intraperitoneally injected into a 6.5-month-old mouse 3 times a week at a dose of 50 mg/kg. After two months of the injection of the autophagy enhancing compound, behavioral analysis was performed, and the brain tissue of the mouse was used as a sample after the behavioral analysis (i.e., at 9.5 […] of mouse) (see FIG. 1).
(§3) In order to confirm potential effects on learning and memory, Morris water maze (MWM) and fear conditioning tests were performed. In the MWM, the mouse learned a task 4 times a day for 10 days, a platform was removed on day 11, and a probe trial was performed. […]

[2] = tested on: APP/PS1 mouse; assay: Astrocyte (GFAP) and microglia (Iba-1) immunofluorescence in brain; settings: 50 mg/kg intraperitoneally 3 times a week for 2 months, compared with APP/PS1 mouse
From the text: as §1
To confirm a therapeutic effect of the autophagy enhancing compound obtained in <Example 1>, an experimental substance was administered to the animal model according to the experimental outline (schedule) illustrated in FIG. 1. Specifically, PBS or the autophagy enhancing compound was intraperitoneally injected into a 6.5-month-old mouse 3 times a week at a dose of 50 mg/kg. […]
After immobilization of the mouse's cerebrum and hippocampus, 0.5% thioflavin S (Sigma-Aldrich), anti-20G10 against Aβ42 (mouse, 1:1000) and anti-G30 against A1340 (rabbit, 1:1000), anti-GFAP (rabbit, 1:500, DAKO) and anti-Iba-1 (rabbit, 1:500, WAKO) were incubated together. The sites were analyzed using a confocal laser scanning microscope or an Olympus BX51 microscope equipped with Fluoview SV1000 imaging software (Olympus FV1000, Japan). A percentage of an area of a stained area to an area of total tissues was quantified and analyzed by using Metamorph software (Molecular Devices). […]

[3] = tested on: APP/PS1 mouse; assay: Real-time quantitative PCR of inflammatory cytokines in brain tissue; settings: 50 mg/kg intraperitoneally 3 times a week for 2 months, brain mRNA, FIG. 6C
From the text: as §1, §2
A real-time quantitative PCR method was used to measure the expression levels of inflammatory response-related cytokines (TNF-α, IL-1β, and IL-6). Total RNA was extracted from the brain tissue using an RNeasy Plus mini kit (Qiagen, Korea, Ltd), and cDNA was synthesized from a total of 5 μg of RNA using a kit from Clontech (Mountain View, Calif.). In addition, by using a Corbett research RG-6000 real-time PCR instrument, real-time quantitative PCR was performed by setting 95° C., 10 minutes; 95° C., 10 seconds; and 58° C., 15 seconds as one cycle and repeating 40 cycles.

[4] = tested on: APP/PS1 mouse; assay: Western blotting of autophagy-related proteins in brain tissue
From the text: as §1, §2
Expression of the following genes was analyzed using Western blotting. First, antibodies against LC3, beclin-1, and p62 [all, purchased from cell signaling Technologies], cathepsin D (R&D systems) and β-actin (Santa Cruz) were used, and density quantification was performed by using ImageJ software (US National Institutes of Health).
In order to confirm how the aforementioned autophagy enhancing compound (in particular, 5-methoxy-4-(phenylsulfonyl)-2-(4-(trifluoromethyl)phenyl)oxazole) actually act in an autophagy-related pathway in vivo, conversion of LC3-I to LC3-II, and expression levels of beclin-1, cathepsin D and p62 were confirmed through a Western blotting experiment in brain tissue samples of 9.5-month-old WT, APP/PS1 (untreated group), and an APP/PS1 mouse injected with the autophagy enhancing compound.

[5] = tested on: APP/PS1 mouse; assay: Fear conditioning test; settings: 50 mg/kg intraperitoneally 3 times a week for 2 months, FIG. 5D
From the text: as §1, §2, §3

[6] = tested on: APP/PS1 mouse; assay: Amyloid-β and tau deposition by thioflavin S / immunofluorescence staining in brain cortex and hippocampus; settings: 50 mg/kg intraperitoneally 3 times a week for 2 months, compared to APP/PS1 mouse (PBS)
From the text: as §1, §2
After immobilization of the mouse's cerebrum and hippocampus, 0.5% thioflavin S (Sigma-Aldrich), anti-20G10 against Aβ42 (mouse, 1:1000) and anti-G30 against A1340 (rabbit, 1:1000), anti-GFAP (rabbit, 1:500, DAKO) and anti-Iba-1 (rabbit, 1:500, WAKO) were incubated together. The sites were analyzed using a confocal laser scanning microscope or an Olympus BX51 microscope equipped with Fluoview SV1000 imaging software (Olympus FV1000, Japan). A percentage of an area of a stained area to an area of total tissues was quantified and analyzed by using Metamorph software (Molecular Devices).
In order to determine whether the aforementioned autophagy enhancing compound had effects for prevention and treatment on neurodegenerative disease, the effect of the compound on an Alzheimer's model was representatively evaluated.
First, an amyloid-β (Aβ) profile of an Alzheimer's lesion and the deposition degree of tau protein were confirmed. First, the cerebral cortex and hippocampus regions of the mouse were stained with thioflavin S (ThioS) according to a known method to confirm the deposition degree of fibrillar amyloid-β. In addition, immunofluorescence staining of Aβ40, Aβ42, and AT8 was performed to confirm the deposition degree of amyloid-β and tau protein.

[7] = 9.5-month-old APP/PS1 mouse, 50 mg/kg intraperitoneally 3 times a week for 2 months, versus increased level in APP/PS1 mouse

## COc1oc(-c2ccc(C(F)(F)F)cc2)nc1S(=O)(=O)c1ccccc1 [autophagy enhancing compound, 5-methoxy-4-(phenylsulfonyl)-2-(4-(trifluoromethyl)phenyl)oxazole]
[1]
  impairment in spatial memory, cognition and memory formation (Morris water maze): significantly improved
[2]; FIG. 6A
  activity of astrocytes (GFAP): significantly reduced
[2]; FIG. 6B
  activity of microglia (Iba-1): significantly reduced
[3]
  gene expression of inflammatory cytokine IL-1β: restored to a normal level
  gene expression of inflammatory cytokine IL-6: restored to a normal level
  gene expression of inflammatory cytokine TNF-α: restored to a normal level
[4]; 9.5-month-old APP/PS1 mouse, 50 mg/kg intraperitoneally 3 times a week for 2 months, FIG. 7
  level of LC3-II: decreased to a level similar to WT
[4]; [7]
  expression level of cathepsin D: decreased
  expression level of p62: decreased
[4]; 9.5-month-old WT, APP/PS1 and injected APP/PS1 mouse, FIG. 7
  expression of beclin-1: no large difference in the three groups
[5]
  memory in fear conditioning test (contextual and tone tasks): remarkable memory improvement effect
[6]; cerebral cortex and hippocampus, FIG. 2
  deposition of fibrillar Aβ (thioflavin S): significantly low
[6]; cortex and hippocampus, FIG. 3A
  deposition of Aβ40: significantly low
[6]; cortex and hippocampus, FIG. 3B
  deposition of Aβ42: significantly low
[6]; cortex and hippocampus, FIG. 4
  deposition of tau protein (AT8): significantly low
